Series [1] relates to germ-free Liverpool hooded rats inoculated orally with Streptococcus mutans NCT 10823. Description: (E) Gnotobiotic rat caries model. The following applies: 21 days; diet 33% skim milk, 67% carbohydrate; S. mutans NCT 10823; statement in words. The class given is in vivo. How it is done: Studies were carried out on the effect of chlorodeoxysucroses on cariogenic food products, using 4,1',6'-trichloro-4,1',6'-trideoxygalactosucrose as the chlorodeoxysucrose. Cariogenicity was examined using the gnotobiotic rat caries model (see for example Drucker and Green, Arch. Oral Biol. Vol 23 pp 183-187).
The experiment involved the use of germ-free Liverpool hooded rats inoculated orally with Streptococcus mutans NCT 10823 (a caries-producing organism). The rats were fed a diet consisting essentially of 33% by weight skim milk and 67% by weight carbohydrate. The carbohydrate consisted of (i) starch, or (ii) sucrose, or (iii) starch together with sufficient of the chlorodeoxysucrose to give a sweetness as perceived by a human of the same order as that of the sucrose. After 21 days, the rats were sacrificed and the lower jaw lesions were counted to give a caries score for each rat (see Konig, Marthaler and Muhlemann, Dt. Zahn-Mund-u. Kieferheilk Vol. 29, 99-127).

Series [2] concerns Streptococcus mutans NCTC 10832. Description: (A) Effect on reduction of pH by Streptococcus mutans. The class given is cell-based. Particulars: for pH: no amino acids, 0.05 molar each saccharide, 37° C. An excerpt: Mouth flora such as S. mutans cause dental caries by producing acid which erodes the tooth enamel. The cells exude a polysaccharide which firmly adheres them to the tooth surfaces as plaque, thus enhancing the local erosion by the acid. The effect of chlorodeoxysucroses on acid production by S. mutans in sucrose solutions was studied in comparison with the effect produced by xylitol, an agent proposed as a caries preventative.
(§1) Plain aqueous solutions were used and also solutions containing amino acids (protein hydrolysate) 1% w/v to approximate the buffering effect of natural saliva. Control experiments were effected using no saccharide in order to illustrate the endogenous metabolism of the organism. Each experiment was quadruplicated and was run at 37° C. The pH was measured at 0, 0.5, 1, 1.5,2, 3 and 4 hours.

For series [3] the following is noted: West German Offenlegungsschrift No. 2700036; cited from earlier work.
Series [4] in a line: Acute oral toxicity in the rat. Particulars: in vivo, per os, maximum dose practically possible. An excerpt: For example, in the rat the compound no.
Series [5] concerns S. mutans. Briefly: (B) Adherence to teeth: deposition of suspended cells on to glass (Magiscan image analyser). The class given is cell-based, Streptococcus mutans. An excerpt: (§2) The extent to which cells of S. mutans adhere to teeth was investigated using a recognized model system. Solutions of the same substances as in (A) were made up, and the degree of deposition of suspended cells on to glass was studied using a "Magiscan" image analyser (Talyer et al., 1978 Praktischen Metallographie, Sonderbande 8: 433-442).
Each reading is the mean of 40 determinations.

The test system of series [6] is S. mutans. Briefly: (C) Further tests on pH reduction. The series is classed as cell-based, Streptococcus mutans. Particulars: for effect on acid production / pH: statement in words, pooled 2, 3 and 4 hours. How it is done: as §1
Twelve sets of tests were carried out in the same way as described above at (A) but using solutions which were 0.055 molar in the respective chlorodeoxy derivative.
Solutions of the following were employed:
(i) Saline, negative control for endogenous metabolism
(ii) Sucrose, positive control
(iii) 6,1',6'-trichloro-6,1',6'-trideoxysucrose, compound no. 7.
(iv) Compound no. 7 plus sucrose.
(v) 1',6'-dichloro-1',6'-dideoxysucrose, compound no. 4
(vi) Compound no. 4 plus sucrose
(vii) 4,1',6'-trichloro-4,1',6'-trideoxygalactosucrose, Compound no. 5.
(viii) Compound no. 5 plus sucrose
(ix) 4,6,6'-trichloro-4,6,6'-trideoxygalactosucrose, Compound no. 6
(x) Compound no. 6 plus sucrose
(xi) 1'-chloro-1'-deoxysucrose, compound no. 1
(xii) Compound no. 1 plus sucrose
The acid production was monitored as before.

The subject of series [7] is S. mutans. Description: Scanning electron microscopy of glass with adherent cells. The following applies: sucrose medium; qualitative. The class given is cell-based, Streptococcus mutans.
The test system of series [8] is S. mutans. Description: (D) Further tests on adherence to teeth. The series is classed as cell-based, Streptococcus mutans. The following applies: glass slide; 0.055 molar; Duncan procedure. How it is done:
as §2
While recording the pH during the tests of (C), the adherence was monitored in the same way as in (B). The percentage coverage of a glass slide was determined at 0.5 and 4 hours for each solution, and the results treated by the Duncan procedure.

Where [9] appears, read: no amino acid, mean of 40 determinations.

“Also recorded” adds a separate entry of the source.

For `OC[C@H]1O[C@H](O[C@]2(CCl)O[C@H](CCl)[C@@H](O)[C@@H]2O)[C@H](O)[C@@H](O)[C@H]1Cl` [Compound no. 5, 4-chloro-4-deoxy-α-D-galactopyranosyl-1,6-dichloro-1,6-dideoxy-β-D-fructofuranoside], in series [1], the “cariogenicity (caries score)” value was “appeared to be decreasing the cariogenicity of the starch”. Also, the pH in series [2] (0 h) turned out to be 5.88; in series [2] (0.5 h), 5.67; in series [2] (1.0 h), 5.69; in series [2] (1.5 h), 5.69; in series [2] (2.0 h), 5.61; in series [2] (3.0 h), 5.67. This compound showed a pH in series [2] (4.0 h) of 5.63. For the same compound, the “Mean pH” value in series [2] (Duncan Procedure sub-sets, amino acids where named in the solution) is given as 5.64; with S. mutans [6] (0.055 molar chlorodeoxy derivative, pooled data for 2, 3 and 4 hours, Duncan procedure) it was 6.82. For the same compound, the “effect on acid production” value in series [2] (statement in words, listed as TGS) is recorded as “always had a favourable effect which was statistically significant; also recorded: reduced the amount of acid produced; also recorded: on its own had a favourable effect against the endogenous metabolism of the micro-organism”. The “sweetness relative to sucrose” value in series [3] is reported as “many times sweeter than sucrose”. In series [4], the LD50 is > 16000 mg/kg. Further, the degree of adhesion result in the series on S. mutans [5] (Mann Whitney U-test, statement in words, listed as TGS) is on record as “reduces the degree of adhesion significantly; also recorded: the reduction is greater than that of xylitol”. Moreover, the “Coverage (%) after 0.5 h” value with S. mutans [5] (setting [9]) was found to be 30.42%. For the same compound, in the series with S. mutans [5] (setting [9]), the “Coverage (%) after 4.0 h” value came to 64.81%. The “effect on acid production / pH” value is on record as “give a better result than the negative control, saline” with S. mutans [6]; “one pH unit less than that of solution (ii)” in the series on S. mutans [6] (listed as (vii)); “especially effective” in the series on S. mutans [6] (listed as no. 5). Further, the “extracellular coating and size of clumps of adherent cells” value in the series with S. mutans [7] is “found to reduce the extracellular coating and the size of the clumps”. For the same compound, the “% coverage after 0.5 hours” value in the series on S. mutans [8] was 41.4%. Moreover, the “% coverage after 4 hours” value with S. mutans [8] stood at 58.4%.

These data come from patent publication US4389394A, “Methods for reducing dental caries” (Talres Development (N.A.) N.V., priority 1978, dated 1983).
